This is an account of results in paper PMC13075795, “A dual-threshold system relying on multiple c-di-GMP metabolic enzymes controls cell fate of a cyanobacterium” (PLOS Biology, 2026).

For orientation: Ki means a dissociation constant, usually derived from enzyme kinetics or from competition with a known ligand. A higher Ki goes with weaker binding. A word on the Km: it is the concentration of substrate that gives half-maximal velocity.

Data set [1] has as its target T1, CdgS (Nostoc sp. PCC 7120 = FACHB-418, UniProt A0ACD7RTW6).
T1 construct: gene all2874; full-length; pHTwinStrep vector, C-terminal twin Strep-tag kept; expressed in E. coli BL21(DE3); Strep-Tactin and SEC
T1 sequence (A0ACD7RTW6 1-330): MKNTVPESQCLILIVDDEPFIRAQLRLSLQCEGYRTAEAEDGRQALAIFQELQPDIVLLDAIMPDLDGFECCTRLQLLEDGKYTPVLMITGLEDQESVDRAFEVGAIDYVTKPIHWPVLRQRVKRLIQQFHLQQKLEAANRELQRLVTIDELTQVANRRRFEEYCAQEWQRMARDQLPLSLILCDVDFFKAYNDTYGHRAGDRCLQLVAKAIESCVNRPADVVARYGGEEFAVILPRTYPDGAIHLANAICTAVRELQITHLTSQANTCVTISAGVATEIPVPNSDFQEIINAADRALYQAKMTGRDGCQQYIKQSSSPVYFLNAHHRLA
Kind of data set: HPLC diguanylate cyclase inhibition assay (GTP consumption). Type of data set: biochemical.

Data set [2] deals with T2, Alr1219-ΔCT (All1219-ΔCT) (Nostoc sp. PCC 7120 = FACHB-418, UniProt A0ACD7RQN0).
T2 construct: C-terminal twin Strep-tag kept; expressed in E. coli BL21(DE3)
Described as above. The format is biochemical.

Data set [3] has as its target T3, Alr3599 (Nostoc sp. PCC 7120 = FACHB-418, UniProt A0ACD7RVV5).
T3 construct: full-length; pHTwinStrep vector, C-terminal twin Strep-tag kept; expressed in E. coli BL21(DE3); Strep-Tactin and SEC
The data set is described as above. The format is biochemical.

Substrate in data set [4]: Nc1nc2c(ncn2[C@@H]2O[C@H](COP(=O)(O)OP(=O)(O)OP(=O)(O)O)[C@@H](O)[C@H]2O)c(=O)[nH]1
Description: HPLC diguanylate cyclase assay, Michaelis-Menten fit. Type of data set: biochemical, Nostoc sp. PCC 7120 = FACHB-418. To be noted: 3.13-200 μM GTP, 1 μM protein, 10 min, 25 °C, 50 mM Tris-HCl pH 8.0, 0.2 M NaCl, 10 mM MgCl2.

For `Nc1nc2c(ncn2[C@@H]2O[C@@H]3CO[P@](=O)(O)O[C@H]4[C@@H](O)[C@H](n5cnc6c(=O)[nH]c(N)nc65)O[C@@H]4CO[P@](=O)(O)O[C@H]3[C@H]2O)c(=O)[nH]1` [c-di-GMP], the Ki stood at 2.42 µM in data set [1], 3.7 µM in data set [2] and 16 µM in data set [3].

B1: Alr3599 (Nostoc sp. PCC 7120 = FACHB-418) (protein)
chain: MSGISPYSLSKKPPVILVADDDKTIRMLLREAMEKEGYRVVEVTDGKQCLDAYEAVKPDIVLLDAMMPVMDGFTCCKQLLQIARNNLITALANLDTDSGLGNTVISRLWERTPILMITSLNDAESVDRAFEAGATDYITKPIHWAVLRQRLRRLLQQAQVYKQLEAANMALQHLANVDGLTGLANRRRFDNYLNTQWINLVQEGAPLSLILCDIDYFKFYNDQYGHPTGDICLQKVGAVLSYKAQKHQDLVARYGGEEFAVVMPYTHAKGAIYVAHAIQTSVRDLQIAHDKSAVSQHITLSMGVATITPTWESSPSDLIAAADKALYKAKESGRNRICQWEDSQ
notes: full-length; pHTwinStrep vector, C-terminal twin Strep-tag kept; expressed in E. coli BL21(DE3); Strep-Tactin and SEC
For B1, in data set [4], the Km was determined as 84.2 ± 30.1 µM.

B2: Alr1219-ΔCT (All1219-ΔCT) (Nostoc sp. PCC 7120 = FACHB-418) (protein)
chain: HMQEELKRSKEFLQQVIDTIADPIFVKNEQHQWIVLNKAYCRFIGYPESFLVEKSDVDFFPKHEADVFRQQDELVFETQRPQENEEEFTDAYGKTHLIATKRSLHKDAAGNFFLVGVIRDITQRKIMEEELKRTAAELFRSNNELKLKEDHLRYLAYHDALTGLPNRKYFAEQLYESINWAKDNNLSLGLLFIDLDGFKQVNDSLGHEMGDRLLVVIAQRLSNSLRASDTVARLGGDEFTVILQAIPNVQVAAKVAEKILANITEPIVLNGCTAKVSVSIGISIYPETSLDPDTLLKKADAAMYRAKHLGKNRFELADRVNTEF
notes: C-terminal twin Strep-tag kept; expressed in E. coli BL21(DE3)
As to B2, the Km in data set [4] was determined as 20.3 ± 12.4 µM.

B3: CdgS (Nostoc sp. PCC 7120 = FACHB-418) (protein)
chain: T1 sequence (A0ACD7RTW6 1-330)
notes: as for B1
For B3, in data set [4], the Km amounted to 26.6 ± 3.5 µM.
